Experimental data as given in paper PMC8434776 (Antiviral research, 2021).
Like-named read-outs stand apart in the source and are kept apart here.

Experiments:
[1] = target: T1, human cytochrome P450 51 (hCYP51) (Homo sapiens, UniProt Q16850); test: enzymatic assay, [[…]-3H]lanosterol conversion by purified hCYP51/CPR, radio-HPLC; assay type: biochemical
T1 sequence (Q16850 1-509): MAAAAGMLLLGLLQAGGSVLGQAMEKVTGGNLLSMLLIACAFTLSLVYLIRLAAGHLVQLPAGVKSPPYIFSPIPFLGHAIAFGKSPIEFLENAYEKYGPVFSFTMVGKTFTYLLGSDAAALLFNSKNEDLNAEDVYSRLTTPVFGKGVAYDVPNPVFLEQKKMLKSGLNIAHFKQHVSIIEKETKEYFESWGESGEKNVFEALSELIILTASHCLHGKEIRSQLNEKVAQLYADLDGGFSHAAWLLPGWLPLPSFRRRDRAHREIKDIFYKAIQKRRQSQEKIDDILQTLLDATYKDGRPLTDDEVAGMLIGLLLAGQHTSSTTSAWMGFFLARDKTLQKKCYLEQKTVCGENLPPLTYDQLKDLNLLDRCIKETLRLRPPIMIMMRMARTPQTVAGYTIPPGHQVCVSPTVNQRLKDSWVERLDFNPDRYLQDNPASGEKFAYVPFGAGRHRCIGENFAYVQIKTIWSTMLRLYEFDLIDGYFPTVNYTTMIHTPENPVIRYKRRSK

[2] = target: T1, human cytochrome P450 51 (hCYP51); test: as above; assay type: biochemical; remark: listed apart in the source

Row | IC50 [1] [µM] | SMILES | IC50 [2] [µM]
1 | 50.5 | C[C@@H](c1nc(-c2ccc(C#N)cc2)cs1)[C@](O)(Cn1cncn1)c1cc(F)ccc1F [ICZ, isavuconazole] | 
2 |  | CC[C@@H]([C@H](C)O)n1ncn(-c2ccc(N3CCN(c4ccc(OC[C@@H]5CO[C@@](Cn6cncn6)(c6ccc(F)cc6F)C5)cc4)CC3)cc2)c1=O [PCZ, posaconazole] | 8.3
